Data from ChEMBL document CHEMBL1157005, “A new structural class of S-adenosylhomocysteine hydrolase inhibitors” (Bioorg Med Chem, 2009).

Experiments:
Adenosylhomocysteinase [1] = target: T1, Adenosylhomocysteinase (Homo sapiens, UniProt P23526); test: Inhibition of S-adenosyl-L-homocysteine hydrolase at 50 uM after 10 mins by scintillation counting
Target sequence in this assay (P23526 2-432 limits assumed): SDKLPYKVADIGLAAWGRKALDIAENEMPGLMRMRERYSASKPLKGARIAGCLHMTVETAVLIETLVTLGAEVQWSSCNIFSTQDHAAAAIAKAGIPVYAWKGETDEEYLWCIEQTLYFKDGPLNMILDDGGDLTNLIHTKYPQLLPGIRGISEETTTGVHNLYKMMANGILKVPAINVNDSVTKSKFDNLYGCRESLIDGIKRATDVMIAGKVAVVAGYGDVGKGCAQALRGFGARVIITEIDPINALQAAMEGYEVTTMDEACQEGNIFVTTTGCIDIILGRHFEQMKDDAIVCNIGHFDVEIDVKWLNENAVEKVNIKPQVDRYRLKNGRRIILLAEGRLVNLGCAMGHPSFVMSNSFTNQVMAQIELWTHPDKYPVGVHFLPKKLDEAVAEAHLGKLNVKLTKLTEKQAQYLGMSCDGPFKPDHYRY

Adenosylhomocysteinase [2] = target: T1, Adenosylhomocysteinase; test: Inhibition of S-adenosyl-L-homocysteine hydrolase at 2 uM after 10 mins by scintillation counting
Target sequence in this assay (P23526 2-432 limits assumed): as above

Adenosylhomocysteinase [3] = target: T2, Adenosylhomocysteinase (Rattus norvegicus, UniProt P10760); test: Inhibition of S-adenosyl-L-homocysteine hydrolase in intact rat hepatocytes; format: cell-based, Hepatocyte
T2 sequence (P10760 whole entry): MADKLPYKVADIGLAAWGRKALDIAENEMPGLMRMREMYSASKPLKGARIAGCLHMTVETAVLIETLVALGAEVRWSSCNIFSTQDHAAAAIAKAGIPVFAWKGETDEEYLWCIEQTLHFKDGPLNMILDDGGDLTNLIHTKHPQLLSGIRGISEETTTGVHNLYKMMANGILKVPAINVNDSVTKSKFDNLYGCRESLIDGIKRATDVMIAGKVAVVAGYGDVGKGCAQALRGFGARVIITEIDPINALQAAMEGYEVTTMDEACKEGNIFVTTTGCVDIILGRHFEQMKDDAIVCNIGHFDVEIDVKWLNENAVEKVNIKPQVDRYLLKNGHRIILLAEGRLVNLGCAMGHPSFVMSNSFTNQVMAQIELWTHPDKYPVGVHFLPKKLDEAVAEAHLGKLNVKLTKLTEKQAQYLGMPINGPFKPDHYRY

Adenosylhomocysteinase [4] = target: T1, Adenosylhomocysteinase; test: Inhibition of S-adenosyl-L-homocysteine hydrolase after 10 mins by scintillation counting
Target sequence in this assay (P23526 whole entry): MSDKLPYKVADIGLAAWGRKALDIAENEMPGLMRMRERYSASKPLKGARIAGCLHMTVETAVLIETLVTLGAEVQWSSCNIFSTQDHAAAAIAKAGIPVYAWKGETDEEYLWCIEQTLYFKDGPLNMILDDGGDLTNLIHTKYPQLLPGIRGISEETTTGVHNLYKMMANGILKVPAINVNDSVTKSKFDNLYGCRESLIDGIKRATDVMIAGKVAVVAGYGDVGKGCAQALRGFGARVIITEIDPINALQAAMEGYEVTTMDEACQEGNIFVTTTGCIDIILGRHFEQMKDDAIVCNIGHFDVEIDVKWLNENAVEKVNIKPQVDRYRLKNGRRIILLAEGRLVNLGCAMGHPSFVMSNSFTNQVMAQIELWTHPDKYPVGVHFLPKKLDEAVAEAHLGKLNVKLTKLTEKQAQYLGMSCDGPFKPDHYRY

Adenosylhomocysteinase [5] = target: Adenosylhomocysteinase (Plasmodium falciparum 3D7, UniProt P50250); test: Inhibition of Plasmodium falciparum S-adenosyl-homocysteine hydrolase
Adenosylhomocysteinase (Plasmodium falciparum 3D7, UniProt P50250), sequence (P50250 whole entry): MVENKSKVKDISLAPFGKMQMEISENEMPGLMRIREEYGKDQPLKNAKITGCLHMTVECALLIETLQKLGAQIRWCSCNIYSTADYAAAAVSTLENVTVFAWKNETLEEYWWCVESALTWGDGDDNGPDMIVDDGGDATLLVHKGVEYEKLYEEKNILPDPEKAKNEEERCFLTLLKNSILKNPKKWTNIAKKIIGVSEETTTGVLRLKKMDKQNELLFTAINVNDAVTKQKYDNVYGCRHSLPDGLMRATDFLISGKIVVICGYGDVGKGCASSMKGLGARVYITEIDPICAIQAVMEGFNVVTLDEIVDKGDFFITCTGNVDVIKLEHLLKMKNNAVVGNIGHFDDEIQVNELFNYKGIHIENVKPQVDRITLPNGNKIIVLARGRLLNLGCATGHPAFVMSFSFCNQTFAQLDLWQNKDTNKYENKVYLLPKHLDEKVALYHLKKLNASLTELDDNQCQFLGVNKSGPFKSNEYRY

inhibition (Adenosylhomocysteinase [1]) [%]	inhibition (Adenosylhomocysteinase [2]) [%]	IC50 (Adenosylhomocysteinase [4]) [µM]	Structure (SMILES)	also measured
74	17	–	Nc1ncnc2c1ncn2Cc1cc(O)c(O)c(OCC2CCCCC2)c1	–
70	12	–	Nc1ncnc2c1ncn2Cc1cc(O)c(O)c(OCc2ccccc2)c1	–
–	–	0.4	Nc1ncnc2c1ncn2Cc1cc(OCC2CCCCC2)cc(O)c1O	–
47	12	–	CCCCCOc1cc(Cn2cnc3c(N)ncnc32)cc(O)c1O	–

Second part, the compound before the results:

Structure (SMILES)	inhibition (Adenosylhomocysteinase [1]) [%]	inhibition (Adenosylhomocysteinase [2]) [%]	IC50 (Adenosylhomocysteinase [4]) [µM]	also measured
Nc1ncnc2c1ncn2C[C@@H](O)[C@@H](O)C(=O)O [ERITADENINE]	–	–	–	IC50 (Adenosylhomocysteinase [3]): 0.03 µM
C=C1CCC[C@H]2[C@](C)(CC3=C(O)C(=O)C=C(OC)C3=O)[C@@H](C)CC[C@]12C [ILIMAQUINONE]	–	–	40	–
Nc1ncnc2c1ncn2[C@@H]1C[C@H](O)[C@@H](O)[C@H]1O [NORARISTEROMYCIN]	–	–	–	IC50 (Adenosylhomocysteinase [5]): 1.1 µM
COC1=CC(=O)C(O)=C(C[C@@]2(C)[C@@H]3CCC[C@H](COC(=O)CCCCCNC(=O)OC(C)(C)C)[C@@]3(C)CC[C@@H]2C)C1=O	–	–	< 20	–
C=C1[C@H](OC(=O)CCCCCNC(=O)OC(C)(C)C)CC[C@H]2[C@](C)(CC3=C(Cl)C(=O)C=C(OC)C3=O)[C@@H](C)CC[C@]12C	–	–	> 250	–
